As a reminder, the IC50 is the midpoint of a concentration-inhibition curve.

Drawing on patent US20250215029A1 (Recludix Pharma, Inc., priority 2022, published 2025), this text covers IC50 for 17 molecules.

In assay [1] the target is T1, Recombinant STAT6 protein (STAT6 (W123-T658)) (Homo sapiens, UniProt P42226).
T1 construct: Recombinant STAT6 protein (STAT6 (W123-T658))
T1 sequence (P42226 123-658): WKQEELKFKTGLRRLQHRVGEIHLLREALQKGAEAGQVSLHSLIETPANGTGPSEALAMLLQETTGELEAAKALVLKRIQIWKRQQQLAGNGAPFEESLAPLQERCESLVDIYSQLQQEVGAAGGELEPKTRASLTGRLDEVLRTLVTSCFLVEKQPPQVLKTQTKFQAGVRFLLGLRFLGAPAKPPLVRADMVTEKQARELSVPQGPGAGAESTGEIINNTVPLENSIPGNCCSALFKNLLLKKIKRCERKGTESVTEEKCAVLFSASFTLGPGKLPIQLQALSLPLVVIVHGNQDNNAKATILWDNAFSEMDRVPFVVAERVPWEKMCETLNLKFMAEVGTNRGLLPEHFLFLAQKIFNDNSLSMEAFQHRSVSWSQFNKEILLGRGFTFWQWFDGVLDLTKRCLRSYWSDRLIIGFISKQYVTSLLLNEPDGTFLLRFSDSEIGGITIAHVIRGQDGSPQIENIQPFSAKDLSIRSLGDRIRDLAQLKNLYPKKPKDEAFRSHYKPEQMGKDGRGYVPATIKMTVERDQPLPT
Put plainly: STAT6 Fluorescence Polarization (FP) Assay. Format: binding. The conditions noted are these: probe 5-FAM-Ap[…]-NH2 2 nM, 45-minute incubation. In short, it runs like this: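 Serially diluted compounds received a premix of STAT6 (W123-T658, 250 nM) and 5-FAM peptide probe (2 nM) in pH 7.4 HEPES buffer containing DTT and Tween 20. Following 45 min at room temperature, FP was recorded. IC50s were fitted by nonlinear regression; values are binned A (≤300 nM), B (>300-3000 nM), C (>3-30 μM), D (>30 μM).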
In general terms: Fluorescence polarisation rises when a labelled molecule tumbles more slowly, as on binding a larger partner.

Assay [2] deals with T2, Recombinant STAT3 protein (STAT3 (G127-I722)) (Homo sapiens, UniProt P40763).
T2 construct: Recombinant STAT3 protein (STAT3 (G127-I722))
Kind of assay: STAT3 Fluorescence Polarization (FP) Assay. Format: binding. The note with it: probe 5-FAM-GpYLPQTV-NH2 2 nM, 45-minute incubation. In short, it runs like this:
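Displacement of a fluorescent phosphotyrosine peptide (5-FAM-GpYLPQTV-NH2, 2 nM) from 25 nM recombinant STAT3 G127-I722 was monitored by FP after 45 min at room temperature.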

Setting [3] is: STAT6 250 nM, read-out: STAT6 (FP assay IC50).
Where [4] appears, read: STAT3 25 nM, read-out: STAT3 (FP assay IC50).
[5] abbreviates: STAT6 (W123-T658) 250 nM, read-out: STAT6 (FP assay IC50 class).
The mark [6] stands for this setting: STAT3 (G127-I722) 25 nM, read-out: STAT3 (FP assay IC50 class).

The structures appear in SMILES notation. Read-outs that look alike come from different tables or passages of the source.

T2 sequence (P40763 127-722): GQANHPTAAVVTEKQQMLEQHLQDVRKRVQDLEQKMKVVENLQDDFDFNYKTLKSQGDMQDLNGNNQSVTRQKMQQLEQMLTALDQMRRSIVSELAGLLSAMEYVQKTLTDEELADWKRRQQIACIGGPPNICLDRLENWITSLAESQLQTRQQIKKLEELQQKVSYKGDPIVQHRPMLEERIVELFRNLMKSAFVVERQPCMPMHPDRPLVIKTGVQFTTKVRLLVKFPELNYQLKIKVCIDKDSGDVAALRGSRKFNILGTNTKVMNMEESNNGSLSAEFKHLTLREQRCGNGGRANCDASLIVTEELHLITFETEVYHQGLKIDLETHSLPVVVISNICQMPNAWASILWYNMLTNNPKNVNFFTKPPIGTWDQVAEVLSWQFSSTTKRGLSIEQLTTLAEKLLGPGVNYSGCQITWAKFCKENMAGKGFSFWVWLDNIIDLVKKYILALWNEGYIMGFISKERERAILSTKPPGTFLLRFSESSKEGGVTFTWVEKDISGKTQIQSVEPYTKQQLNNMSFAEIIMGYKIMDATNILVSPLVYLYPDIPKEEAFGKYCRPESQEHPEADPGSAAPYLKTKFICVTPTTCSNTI

In the case of `O=C(N[C@H]1CCCC[C@H]2CC[C@@H](C(=O)N3CC(Cc4ccccc4)C3)N2C1=O)c1cc2cc(C(F)(F)P(=O)(O)O)ccc2s1` [Compound 36, ((2-(((3S,6S,10aS)-3-(3-benzylazetidine-1-carbonyl)-5-oxodecahydro-pyrrolo[1,2-a]azocin-6-yl)carbamoyl)benzo[b]thiophen-5-yl)difluoromethyl) phosphonic acid], the IC50 in assay [1] (setting [3]) was 300 to 3000 nM; in assay [2] (setting [4]), under 100 nM.

Regarding `N#C[C@H]1[C@H](c2ccccc2)CN(C(=O)[C@@H]2CC[C@@H]3CCCC[C@H](NC(=O)c4cc5cc([C@H](F)P(=O)(O)O)ccc5s4)C(=O)N32)C12CC2` (single isomer, unassigned) [Compound 924], the IC50 in assay [1] (setting [5]) was at most 300 nM; in assay [2] (setting [6]) it was 1000 to 10000 nM.

As for `N#C[C@H]1CN(C(=O)[C@@H]2CC[C@@H]3CCCC[C@H](NC(=O)c4cc5cc(C(F)(F)P(=O)(O)O)ccc5s4)C(=O)N32)C[C@@H]1CC1CCOCC1` (racemic) [Compound 88, ((2-(((3S,6S,10aS)-3-(rel-(trans)-3-cyano-4-((tetrahydro-2H-pyran-4-yl)methyl)pyrrolidine-1-carbonyl)-5-oxodecahydropyrrolo [1,2-a]azocin-6-yl)carbamoyl)benzo[b]thiophen-5-yl)difluoromethyl) phosphonic acid], the figures for the IC50 in assay [1] (setting [3]) and in assay [2] (setting [4]) were 300 to 3000 nM and 1000 to 10000 nM, respectively.

For the molecule `Cn1cnnc1C1CN(C(=O)[C@@H]2CC[C@@H]3CCC[C@H](NC(=O)c4cc5cc(C(F)(F)P(=O)(O)O)ccc5s4)C(=O)N32)CCO1` (stereo partly drawn) [Compound 1126, (difluoro(2-(((3S,6S,9aS)-3-(2-(4-methyl-4H-1,2,4-triazol-3-yl)morpholine-4-carbonyl)-5-oxooctahydro-1H-pyrrolo[1,2-a]azepin-6-yl)carbamoyl)benzo[b]thiophen-5-yl)methyl)phosphonic acid], the values for the IC50 in assay [1] (setting [5]) and in assay [2] (setting [6]) were 300 to 3000 nM and 100 to 1000 nM, respectively.

With `O=C(N[C@H]1CCC[C@H]2CC[C@@H](C(=O)N3CC(c4cnccc4F)C3)N2C1=O)c1cc2cc(C(F)(F)P(=O)(O)O)ccc2s1` [Compound 762, (difluoro(2-(((3S,6S,9aS)-3-(3-(4-fluoropyridin-3-yl)azetidine-1-carbonyl)-5-oxooctahydro-1H-pyrrolo[1,2-a]azepin-6-yl)carbamoyl)benzo [b]thiophen-5-yl)methyl) phosphonic acid], the values for the IC50 in assay [1] (setting [5]) and in assay [2] (setting [6]) were 300 to 3000 nM and under 100 nM, respectively.

Consider `O=C(N[C@H]1CCCC[C@H]2CC[C@@H](C(=O)N3CCC(c4cc[nH]c(=O)c4)C3)N2C1=O)c1ccc2ccc(C(F)(F)P(=O)(O)O)cc2c1` (stereo partly drawn) [Compound 866, (difluoro(7-(((3S,6S,10aS)-5-oxo-3-(3-(2-oxo-1,2-dihydropyridin-4-yl)pyrrolidine-1-carbonyl)decahydropyrrolo[1,2-a]azocin-6-yl)carbamoyl)naphthalen-2-yl)methyl) phosphonic acid], for which the IC50 was at most 300 nM in assay [1] (setting [5]) and 100 to 1000 nM in assay [2] (setting [6]).

Turning to `O=C(N[C@H]1CCC[C@H]2CC[C@@H](C(=O)N3CC(c4cnccc4N4CC5(COC5)C4)C3)N2C1=O)c1cc2cc(CP(=O)(O)O)ccc2s1` [Compound 704, ((2-(((3S,6S,9aS)-3-(3-(4-(2-oxa-6-azaspiro[3.3]heptan-6-yl)pyridin-3-yl)azetidine-1-carbonyl)-5-oxooctahydro-1H-pyrrolo[1,2-a]azepin-6-yl)carbamoyl)benzo [b]thiophen-5-yl)methyl) phosphonic acid], the IC50 in assay [1] (setting [5]) was 3000 to 30000 nM; in assay [2] (setting [6]), under 100 nM.

`N#C[C@@H]1CN(C(=O)[C@@H]2CC[C@@H]3CCCC[C@H](NC(=O)c4cc5cc(C(F)(F)P(=O)(O)O)ccc5s4)C(=O)N32)C[C@H]1c1cc[nH]c(=O)c1` (relative stereo) [Compound 86, ((2-(((3S,6S,10aS)-3-(rel-(trans)-3-cyano-4-(2-oxo-1,2-dihydropyridin-4-yl)pyrrolidine-1-carbonyl)-5-oxodecahydropyrrolo [1,2-a]azocin-6-yl)carbamoyl)benzo[b]thiophen-5-yl)difluoromethyl) phosphonic acid]: the IC50 in assay [1] (setting [3]) was at most 300 nM; in assay [2] (setting [4]) it was 100 to 1000 nM.

With `N#C[C@@H]1CN(C(=O)[C@@H]2CC[C@@H]3C[C@@H](N4CCC4)CC[C@H](NC(=O)c4cc5cc(C(F)(F)P(=O)(O)O)ccc5s4)C(=O)N32)C[C@H]1c1ccccc1` (relative stereo) [Compound 21, ((2-(((3S,6S,9S,10aR)-9-(azetidin-1-yl)-3-(rel-(trans)-3-cyano-4-phenylpyrrolidine-1-carbonyl)-5-oxodecahydropyrrolo [1,2-a]azocin-6-yl)carbamoyl)benzo[b]thiophen-5-yl)difluoromethyl) phosphonic acid], the IC50 is at most 300 nM in assay [1] (setting [3]) and 1000 to 10000 nM in assay [2] (setting [4]).

Regarding `N#C[C@@H]1[C@@H](c2ccccc2)CN(C(=O)[C@@H]2CC[C@@H]3CCC[C@H](NC(=O)c4cc5cc([C@@H](F)P(=O)(O)O)ccc5s4)C(=O)N32)C12CC2` (single isomer, unassigned) [Compound 920], the IC50 in assay [1] (setting [5]) is at most 300 nM; in assay [2] (setting [6]) it was 1000 to 10000 nM.

For `C/C1=C/C[C@H](NC(=O)c2cc3cc(CP(=O)(O)O)ccc3s2)C(=O)N2[C@H](CC[C@H]2C(=O)N2CC(c3cnccc3C)C2)C1` [Compound 642, ((2-(((3S,6S,10aR,Z)-9-methyl-3-(3-(4-methylpyridin-3-yl)azetidine-1-carbonyl)-5-oxo-1,2,3,5,6,7,10,10a-octahydropyrrolo[1,2-a]azocin-6-yl)carbamoyl)benzo [b]thiophen-5-yl)methyl) phosphonic acid], the IC50 in assay [1] (setting [5]) was 3000 to 30000 nM; in assay [2] (setting [6]), 100 to 1000 nM.

`O=C(N[C@H]1CCCC[C@H]2CC[C@@H](C(=O)N3CC(NCC(F)F)(c4ccccn4)C3)N2C1=O)c1cc2cc(C(F)P(=O)(O)O)ccc2s1` (stereo partly drawn) [Compound 761, ((2-(((3S,6S,10aS)-3-(3-((2,2-difluoroethyl)amino)-3-(pyridin-2-yl)azetidine-1-carbonyl)-5-oxodecahydropyrrolo[1,2-a]azocin-6-yl)carbamoyl)benzo [b]thiophen-5-yl)fluoromethyl) phosphonic acid]: the IC50 was 3000 to 30000 nM in assay [1] (setting [5]) and under 100 nM in assay [2] (setting [6]).

Turning to `Cc1ccnc(F)c1C1CN(C(=O)[C@@H]2CC[C@@H]3CCC[C@H](NC(=O)c4cc5cc(CP(=O)(O)O)ccc5s4)C(=O)N32)C1` [Compound 505, ((2-(((3S,6S,9aS)-3-(3-(2-fluoro-4-methylpyridin-3-yl)azetidine-1-carbonyl)-5-oxooctahydro-1H-pyrrolo[1,2-a]azepin-6-yl)carbamoyl)benzo[b]thiophen-5-yl)methyl)phosphonic acid], the IC50 in assay [1] (setting [5]) lay within 3000 to 30000 nM; in assay [2] (setting [6]) it was 1000 to 10000 nM.

`O=C(N[C@H]1CCC[C@H]2CC[C@@H](C(=O)N3CC(c4cccnc4)CC34CC4)N2C1=O)c1cc2cc(C(F)P(=O)(O)O)ccc2s1` (stereo partly drawn) [Compound 907, (fluoro(2-(((3S,6S,9aS)-5-oxo-3-(6-(pyridin-3-yl)-4-azaspiro[2.4]heptane-4-carbonyl)octahydro-1H-pyrrolo[1,2-a]azepin-6-yl)carbamoyl)benzo [b]thiophen-5-yl)methyl) phosphonic acid]: the IC50 in assay [1] (setting [5]) was at most 300 nM; in assay [2] (setting [6]) it was 1000 to 10000 nM.

Regarding `O=C(N[C@H]1CCC[C@H]2CC[C@@H](C(=O)N3CC(c4cnccc4F)C3)N2C1=O)c1cc2cc(C(F)P(=O)(O)O)ccc2s1` (stereo partly drawn) [Compound 664, (fluoro(2-(((3S,6S,9aS)-3-(3-(4-fluoropyridin-3-yl)azetidine-1-carbonyl)-5-oxooctahydro-1H-pyrrolo[1,2-a]azepin-6-yl)carbamoyl)benzo [b]thiophen-5-yl)methyl) phosphonic acid], the IC50 is 300 to 3000 nM in assay [1] (setting [5]) and under 100 nM in assay [2] (setting [6]).

On to `COc1ccc(N(C)C(=O)[C@@H]2CC[C@@H]3CCCC[C@H](NC(=O)c4cc5cc(C(F)(F)P(=O)(O)O)ccc5s4)C(=O)N32)cn1` [Compound 44, (difluoro(2-(((3S,6S,10aS)-3-((6-methoxypyridin-3-yl)(methyl)carbamoyl)-5-oxodecahydro-pyrrolo[1,2-a]azocin-6-yl)carbamoyl)benzo[b]thiophen-5-yl)methyl) phosphonic acid], for which the IC50 in assay [1] (setting [3]) lay in the range of 300 to 3000 nM; in assay [2] (setting [4]), 1000 to 10000 nM.

On to `N#Cc1cccc(C2CN(C(=O)[C@@H]3CC[C@@H]4CCC[C@H](NC(=O)c5cc6cc(C(F)P(=O)(O)O)ccc6s5)C(=O)N43)C2)n1` (stereo partly shown) [Compound 526], for which the results for the IC50 in assay [1] (setting [5]) and in assay [2] (setting [6]) were 3000 to 30000 nM and under 100 nM, respectively.
